This is an account of results in PMC11899342, “Novel Triazeneindole Antibiotics: Synthesis and Hit-to-Lead Optimization” (International Journal of Molecular Sciences, 2025).

A short description of one series: Stability in rat plasma. Format: in vitro ADME. The conditions noted are these: 37 °C, 1 μM. Here is the method: (§1) For the experiment, human and rat plasma (SD) was thawed at room temperature and centrifuged for 5 min at 1500× g. Eucatropine (Sigma-Aldrich, USA), which is unstable in human and rat plasma, was used as a control compound.
(§2) For stability evaluation, 3 μL of 100X solutions of the tested or control compound (0.1 mM) was added to 297 μL of the corresponding plasma (prewarmed to 37 °C) to a final concentration of 1 μM. The plasma samples were incubated with the test and control compounds in the 0.65 mL microtubes at 37 °C and under 300 rpm rotation. After 15, 30, 60, and 240 min, 30 μL aliquots were taken into 1.1 mL microtubes with 180 μL of chilled acetonitrile with an internal standard of 200 ng/mL tolbutamide (Fluka). The tubes were stirred and kept at 4 °C for 15 min, then centrifuged at 1500× g for 10 min. A total of 200 μL of the supernatants was transferred into microtubes and stored at −70 °C until UPLC–MS/MS analysis.

The target in the next series is T1, hERG K+-ion channel (Homo sapiens, UniProt Q12809).
T1 construct: purchased Invitrogen
T1 sequence (Q12809 whole entry): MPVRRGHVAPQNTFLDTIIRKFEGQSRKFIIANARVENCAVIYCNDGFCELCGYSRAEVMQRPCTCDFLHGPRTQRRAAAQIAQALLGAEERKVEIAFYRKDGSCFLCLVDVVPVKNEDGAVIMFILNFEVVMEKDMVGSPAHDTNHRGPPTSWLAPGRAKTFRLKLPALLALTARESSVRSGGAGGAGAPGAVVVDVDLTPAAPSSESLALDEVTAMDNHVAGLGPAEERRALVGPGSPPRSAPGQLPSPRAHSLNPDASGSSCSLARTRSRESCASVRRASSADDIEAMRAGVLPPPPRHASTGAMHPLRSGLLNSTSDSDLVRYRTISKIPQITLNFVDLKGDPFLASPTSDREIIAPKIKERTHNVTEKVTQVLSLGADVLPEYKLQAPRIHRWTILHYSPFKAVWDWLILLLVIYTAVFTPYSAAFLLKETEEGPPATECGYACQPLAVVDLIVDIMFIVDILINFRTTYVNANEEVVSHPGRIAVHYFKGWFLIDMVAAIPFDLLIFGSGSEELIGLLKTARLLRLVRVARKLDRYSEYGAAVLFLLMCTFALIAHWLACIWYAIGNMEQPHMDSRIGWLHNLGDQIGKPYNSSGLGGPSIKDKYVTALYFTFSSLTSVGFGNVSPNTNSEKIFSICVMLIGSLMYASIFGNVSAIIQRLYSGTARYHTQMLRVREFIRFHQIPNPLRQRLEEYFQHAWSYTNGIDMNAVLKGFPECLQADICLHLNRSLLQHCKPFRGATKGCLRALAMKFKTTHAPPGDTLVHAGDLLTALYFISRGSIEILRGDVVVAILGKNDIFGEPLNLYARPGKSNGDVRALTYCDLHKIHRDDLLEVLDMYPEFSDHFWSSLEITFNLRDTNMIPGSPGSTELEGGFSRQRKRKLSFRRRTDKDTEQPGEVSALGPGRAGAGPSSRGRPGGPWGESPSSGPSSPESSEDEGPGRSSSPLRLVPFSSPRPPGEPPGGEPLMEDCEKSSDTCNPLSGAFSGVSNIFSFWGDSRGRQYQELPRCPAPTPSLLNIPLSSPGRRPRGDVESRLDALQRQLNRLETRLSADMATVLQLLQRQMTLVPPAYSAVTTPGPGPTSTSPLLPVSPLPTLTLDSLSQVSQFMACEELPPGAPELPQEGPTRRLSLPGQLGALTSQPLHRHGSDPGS
Put plainly: Predictor hERG fluorescence polarization assay. The format is binding. As to conditions: tracer displacement, up to 50 µM. The method, then:
Determination of the binding of the BX-SI043 compound to the hERG K^+-ion channel was carried out using the Predictor hERG Fluorescence Polarization Assay Kit (Invitrogen, USA) at concentrations of 0.016, 0.08, 0.4, 2, 10, and 50 µM, according to the manufacturer’s instructions. This method is based on the measurement of the changing fluorescence polarization caused by the displacement of the high-affinity fluorescent tracer by the tested compound. A selective inhibitor of the hERG channels E-4031 was used as a control compound. Briefly, a 2X solution of membranes, containing hERG channels, was prepared and placed in 384-well plate. The tested substance, the control substance, the buffer, and the tracer were placed in the corresponding wells and incubated in the dark at room temperature for 2 h. Fluorescence polarization measurement was conducted on an Infinite M1000 PRO plate reader with the following parameters: 10 flashes per well; an excitation center wavelength of 530 nm, with a bandwidth of 5 nm; an emission center wavelength of 585 nm, with a bandwidth of […]. The calculation of the IC50 half-maximal inhibition concentration values was performed in GraphPad Prism 6.0 (GraphPad Software Inc.), based on the equations of the experimental curves.

A short description of series [1]: Single-dose acute toxicity, intragastric administration. The format is in vivo, rat. The conditions noted are these: both sexes, Wistar, rat, in vivo, po; rats, intragastric, single dose; read-out: maximum tolerated dose. Here is the method:
Before administration, the BX-SI043 substance was resuspended in a 1% starch solution. The animals in the treatment groups received suspensions intragastrically in doses of 2000 mg/kg (administered in two equal doses, with a 30–40 min interval), 1000 mg/kg, 600 mg/kg, and 300 mg/kg (administered in single doses).
The animals were monitored daily for any abnormalities. On the 2nd, 7th, and 13th days after administration, the animals were clinically evaluated and weighed, and the consumption of feed and water were measured. On the 14th day, the behavior of the animals was evaluated. On the 15th day, the animals were euthanized, and the lungs (with trachea), heart, thymus, liver, kidneys, spleen, stomach, small intestine, colon, brain, adrenal glands, and testes/ovaries were fixed in 10% neutral formalin for histological evaluation.

Series [2] in a line: Stability in human plasma. The conditions noted are these: 37 °C, 1 μM. The format is in vitro ADME. The method, then: as §1, §2
The nature of series [3]: Stability in human liver microsomes. Format: in vitro ADME. The method, then: (§3) The liver metabolism of the substance was studied in the microsomal fractions of human and rat livers (XenoTech HMMCPL, RTMCPL, Kansas City, KS, USA) in the presence of the cofactor of the oxidative enzymes NADPH (AppliChem, Darmstadt, Germany).
(§4) The plate was incubated in a thermal shaker for 10 min at 400 rpm and 37 °C; then, 2.4 µL of 100× stocks of the tested substance was added into each well. A total of 30 µL of 8× cofactor solution was added to each experimental well (two replicates), 30 µL of deionized water was added to one control well, and all wells were mixed three times using a multichannel pipette with a volume of 100 µL. After mixing, the plate was placed in a thermal shaker at 400 rpm and 37 °C. The reactions were terminated at the following time points—0, 5, 10, 15, 20, and 30 min—by transferring 30 µL of the reaction mixture from the corresponding well to 1.1 mL microtubes and adding 180 µL of acetonitrile with internal standard 200 ng/mL tolbutamide (Fluka, Switzerland). To evaluate the stability of the substance in the microsomes without the cofactor, two aliquots were taken from the control well, and the reactions were terminated at 0 and 30 min time points. […] Then, the samples were centrifuged for 10 min at 1500× g, and 150 μL of the supernatant was taken for UPLC–MS/MS analysis.

A short description of series [4]: Stability in rat liver microsomes. The conditions noted are these: NADPH. The format is in vitro ADME. The method, then: as §3, §4
On the technique in general: Microsomes from liver hold many membrane-bound enzymes, among them those of drug oxidation.

As usually defined, the IC50 is the point on the concentration scale where inhibition reaches its midpoint. As a reminder, the half-life is how long it takes for the measured level to halve. A lower half-life goes with fast loss. Usually microsomal CLint stands for the rate of metabolic loss divided by the concentration. Read a low microsomal CLint as slow turnover. For the compound `CCOC(=O)c1[nH]c2cc(F)ccc2c1/N=N/N1CCCC1` [BX-SI043, Ethyl (E)-6-fluoro-3-(pyrrolidin-1-yldiazenyl)-1H-indole-2-carboxylate], the “remaining in rat plasma after 15 min” value in the series “Stability in rat plasma” amounted to 1.7%. The IC50 on hERG K+-ion channel was > 50 µM. For the same compound, in series [1], the MTD at 14 days was 600 mg/kg. Besides, in series [2] (1 h), the “metabolized in human plasma after 1 h” value is listed as “about 50%”. For the same compound, the “metabolized in human plasma after 4 h” value in series [2] (4 h) was found to be 97%. Besides, the “Remaining after 30 min” value in series [3] (NADPH) and in series [4] (rat liver microsomes) was 0.00% throughout. Also, the half-life was 2.73 min in series [3] (pH 7.4, NADPH) and 1.4 min in series [4] (rat, liver microsomes, pH 7.4, rat liver microsomes). Besides, the intrinsic clearance (microsomal CLint) in series [3] (pH 7.4, NADPH) was 1020 µL/min/mg; in series [4] (pH 7.4, rat liver microsomes), 2140 µL/min/mg. This compound registered a t1/2 in series [4] (rat liver microsomes, listed as ВХSI043) of 1.30 min.
